# Results published in patent US9598426B2, “Organic compounds” (INTRA-CELLULAR THERAPIES, INC., priority 2013, dated 2017).
# Tests used:
# C57BL/6 mice = assay: Haloperidol induced catalepsy model (bar grip test, step down latency); type: in vivo, mouse; conditions: haloperidol 3 mg/Kg PO, male C57BL/6 mice, compound PO
# Text: Haloperidol Induced Catalepsy Model
# To evaluate the potential beneficial effects to motor defects present in schizophrenics treated with typical and atypical antipsychotic agents and in Parkinson's disease patients, the compounds of the invention may be tested in a reversal of catalepsy model in which motor freezing, or catalepsy, is induced by potent dopamine D2 receptor antagonists such as haloperidol or risperidone. The method uses the “bar grip test”, in which the front paws of the mouse are placed so as to grip a 3 mm-diameter, suspended wooden bar. A “step down latency” is measured by recording the time until the mouse removes its paws from the wooden bar to the floor surface. Catalepsy is a freezing of the musculature that prevents the mouse from moving off the bar. […]
# A catalepsy score is recorded for each mouse at 2, 3, 4, and 6 hours after administration of drugs. […] The latency until the mouse steps both paws down from the bar to the floor surface (i.e., step down latency) is recorded up to 120 sec. […] If none of the 10 attempts are beyond 10 sec, the longest duration recorded is used as the catalepsy score. Otherwise, the initial cataleptic duration (>10 sec) is recorded during the 120 sec testing time. Mean step down latency is calculated for each treatment group.
# rats = assay: Novel Object Recognition (NOR) assay; type: in vivo; conditions: PO, administered to a rat 2 hours before T1 (acquisition); 24 h interval
# Text: Novel Object Recognition Assay
# To measure the cognition-enhancing effects of the compounds of the invention, the candidate compounds may be evaluated in a Novel Object Recognition (NOR) assay. This assay protocol is described in detail in Ennaceur et al., Behav. Brain Res. (1988) 31:47-59 and Prickaerts et al., Eur. J. Pharmacol. (1997) 337:125-136, the contents of each of which are incorporated by reference in their entirety. In this protocol, the rats are introduced to a chamber at time T1 and allowed to interrogate two identical “familiar objects” for six minutes. Twenty-four hours later, they are re-introduced to this chamber, where one of the familiar objects has been replaced with a novel object. The “discrimination index”, a measure of the time spent in close proximity to the novel over the familiar object, may then be measured. Since rodents will forget the original experiment at T1 within 4 hours, this test with a 24 h interval is a measure of strong cognitive enhancement.
# This assay protocol can be modified in order to evaluate different phases of memory. There are three general phases of memory, namely, acquisition, consolidation and retrieval. In this modified protocol, the rats may be dosed with the candidate compound two hours before T1 and tested 24 h later without additional dosing. This is a test of the acquisition process. […]
compound,measurement,setting,value
"CC(=O)c1ccc(Cn2nc3c(c2Nc2ccc(F)cc2)C(=O)N(C)C2=NC(C)(C)CN23)cc1 [Example 1, 7,8-Dihydro-2-(4-acetylbenzyl)-3-(4-fluorophenylamino)-5,7,7-trimethyl-[2H]-imidazo-[1,2-a]pyrazolo[4,3-e]pyrimidin-4(5H)-one]",minimal effective dose,C57BL/6 mice,0.1 mg/kg
same,minimal effective dose,rats,0.1 mg/kg
